Each structure is given as a SMILES string.

We go through one compound from ChEMBL document CHEMBL4052645, “Discovery of potent and efficacious pyrrolopyridazines as dual JAK1/3 inhibitors” (Bioorg Med Chem Lett, 2017).

The test concerns the target Protein kinase C iota type (Homo sapiens) (UniProt P41743). Nature of the test: Inhibition of recombinant human PKCiota (H215 to V587 residues) expressed in mammalian expression system assessed as residual activity at 50 nM by Kinomescan method relative to control.

Protein kinase C iota type (Homo sapiens), sequence (P41743 whole entry, the tested form may be a part): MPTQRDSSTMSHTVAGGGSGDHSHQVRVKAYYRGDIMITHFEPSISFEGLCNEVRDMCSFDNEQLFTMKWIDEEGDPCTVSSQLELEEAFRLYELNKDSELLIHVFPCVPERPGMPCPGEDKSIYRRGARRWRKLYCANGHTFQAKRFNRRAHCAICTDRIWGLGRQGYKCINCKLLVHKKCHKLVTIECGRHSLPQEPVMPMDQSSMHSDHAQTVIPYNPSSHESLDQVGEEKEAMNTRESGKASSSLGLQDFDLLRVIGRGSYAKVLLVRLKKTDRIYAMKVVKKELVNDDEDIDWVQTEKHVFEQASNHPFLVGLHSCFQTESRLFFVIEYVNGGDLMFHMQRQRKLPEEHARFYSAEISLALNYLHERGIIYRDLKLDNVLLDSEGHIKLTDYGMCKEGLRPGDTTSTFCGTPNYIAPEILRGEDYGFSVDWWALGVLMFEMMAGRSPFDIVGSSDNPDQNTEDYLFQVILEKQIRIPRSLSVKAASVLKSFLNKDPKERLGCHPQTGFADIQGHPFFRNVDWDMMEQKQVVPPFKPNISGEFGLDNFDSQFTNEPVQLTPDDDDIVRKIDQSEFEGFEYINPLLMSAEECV

As for `COc1ccc(-c2cc3c(N[C@@H]4CC[C@](C)(N)C4(C)C)c(C(N)=O)cnn3c2)cn1`, the Activity came out at 100%.
